Source: US10407445B2, “Hepatitis C virus inhibitors” (ENANTA PHARMACEUTICALS, INC., priority 2013, dated 2019)
Read-outs that look alike come from different tables or passages of the source.

How the values were obtained:
HCV GT 1a replicon = test: HCV replicon assay, stable GT 1a replicon (Renilla luciferase); assay type: cell-based; settings: Hepatitis C virus, GT1A
Summary of the method: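 Huh-7.5 cells stably carrying a GT1a replicon (H77-based) with Renilla luciferase-Neo reporter, 4000 cells/well, sixteen-point half-log compound series, phenol red-free DMEM without G418. Luciferase read after 72 h relative to DMSO-treated cells gives EC50.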

[1] = test system: GT1a replicon encoding NS5A mutation Y93H; test: Transient replication assay, GT1a replicon with NS5A mutation Y93H; assay type: cell-based; settings: Hepatitis C virus
[2] = HCV GT 1a replicon, 72 h, read-out: EC50 1a

Compound | EC50 (HCV GT 1a replicon; [2]) [nM] | EC50 ([1]; read-out: EC50 1a Y93H) [nM] | EC50 (HCV GT 1a replicon; comparative table, GT 1a, read-out: EC50 (nM) 1a) [nM] | EC50 ([1]; read-out: EC50 (nM) 1a Y93H) [nM]
COC(=O)N[C@H](C(=O)N1C[C@]2(CCCOC2)C[C@H]1c1nc2ccc3cc(-c4ccc5c(ccc6nc([C@@H]7C[C@@]8(CCCOC8)CN7C(=O)[C@@H](NC(=O)OC)C(C)C)[nH]c65)c4)ccc3c2[nH]1)C(C)C [Compound 31] | 0.03 | 0.2 | – | –
COC(=O)N[C@H](C(=O)N1C[C@]2(CCCOC2)C[C@H]1c1ncc(-c2ccc(-c3ccc(-c4cnc([C@@H]5C[C@@H]6CCCC[C@@H]6N5C(=O)[C@@H](NC(=O)OC)C(C)C)[nH]4)cc3)cc2)[nH]1)C(C)C [Compound 32] | 0.007 | 7 | – | –
COC(=O)N[C@H](C(=O)N1CCC[C@H]1c1ncc(-c2ccc(-c3ccc4c(c3)OCc3nc([C@@H]5C[C@@]6(CCCOC6)CN5C(=O)[C@@H](NC(=O)OC)C(C)C)[nH]c3-4)cc2)[nH]1)C(C)C [Compound 33] | 0.027 | 4 | – | –
COC(=O)N[C@H](C(=O)N1C[C@]2(CCCOC2)C[C@H]1c1nc2ccc3cc(-c4ccc(-c5cnc([C@@H]6C[C@@H]7COC[C@@H]7N6C(=O)[C@@H](NC(=O)OC)C(C)C)[nH]5)cc4)ccc3c2[nH]1)C(C)C [Compound 34] | 0.024 | 4 | – | –
COC(=O)N[C@H](C(=O)N1C[C@]2(CCCOC2)C[C@H]1c1ncc(-c2ccc(-c3ccc4c(ccc5nc([C@@H]6C[C@@H]7COC[C@@H]7N6C(=O)[C@@H](NC(=O)OC)C(C)C)[nH]c54)c3)cc2)[nH]1)C(C)C [Compound 35] | 0.028 | 26 | – | –
COC(=O)N[C@H](C(=O)N1C[C@]2(CCCOC2)C[C@H]1c1nc2ccc3cc(-c4ccc5c(ccc6nc([C@@H]7C[C@@H]8COC[C@@H]8N7C(=O)[C@@H](NC(=O)OC)C(C)C)[nH]c65)c4)ccc3c2[nH]1)C(C)C [Compound 36] | 0.029 | 8 | – | –
COC(=O)N[C@H](C(=O)N1C[C@]2(CCCOC2)C[C@H]1c1ncc(-c2ccc(-c3ccc(-c4cnc([C@@H]5C[C@@H]6CCC[C@@H]6N5C(=O)[C@@H](NC(=O)OC)C(C)C)[nH]4)cc3)cc2)[nH]1)C(C)C [Compound 37] | 0.008 | 15 | – | –
COC(=O)N[C@H](C(=O)N1C[C@]2(CCCOC2)C[C@H]1c1ncc(-c2ccc(-c3ccc4c(c3)CCCc3nc([C@@H]5C[C@@H]6CCCC[C@@H]6N5C(=O)[C@@H](NC(=O)OC)C(C)C)[nH]c3-4)cc2)[nH]1)C(C)C [Compound 40] | 0.011 | 8 | – | –
COC(=O)N[C@H](C(=O)N1C[C@]2(CCCOC2)C[C@H]1c1ncc(-c2ccc(-c3ccc4c(c3)OCc3nc([C@@H]5C[C@@H]6CCCC[C@@H]6N5C(=O)[C@@H](NC(=O)OC)C(C)C)[nH]c3-4)cc2)[nH]1)C(C)C [Compound 42] | 0.006 | 16 | – | –
COC(=O)N[C@H](C(=O)N1CCC[C@H]1c1ncc(-c2ccc(-c3ccc4c(ccc5nc([C@@H]6C[C@@]7(CCCOC7)CN6C(=O)[C@@H](NC(=O)OC)C(C)C)[nH]c54)c3)cc2)[nH]1)C(C)C [Compound 44] | 0.01 | 6 | – | –
COC(=O)N[C@H](C(=O)N1C[C@]2(CCCOC2)C[C@H]1c1ncc(-c2ccc(-c3ccc4c(ccc5nc([C@@H]6CCCN6C(=O)[C@@H](NC(=O)OC)C(C)C)[nH]c54)c3)cc2)[nH]1)C(C)C [Compound 47] | 0.015 | 8 | – | –
COC(=O)N[C@H](C(=O)N1CCC[C@H]1c1nc2ccc3cc(-c4ccc5c(ccc6nc([C@@H]7C[C@@]8(CCCOC8)CN7C(=O)[C@@H](NC(=O)OC)C(C)C)[nH]c65)c4)ccc3c2[nH]1)C(C)C [Compound 48] | 0.006 | 2 | – | –
COC(=O)N[C@H](C(=O)N1C[C@@]2(CCOC2)C[C@H]1c1ncc(-c2ccc(-c3ccc4c(ccc5nc([C@@H]6C[C@]7(CCOC7)CN6C(=O)[C@@H](NC(=O)OC)C(C)C)[nH]c54)c3)cc2)[nH]1)C(C)C [Compound 49] | 0.01 | 12 | – | –
COC(=O)N[C@H](C(=O)N1C[C@@]2(CCOC2)C[C@H]1c1ncc(-c2ccc(-c3ccc4c(ccc5nc([C@@H]6CCCN6C(=O)[C@@H](NC(=O)OC)C(C)C)[nH]c54)c3)cc2)[nH]1)C(C)C [Compound 50] | 0.014 | 7 | – | –
COC(=O)N[C@H](C(=O)N1CCC[C@H]1c1ncc(-c2ccc(-c3ccc4c(ccc5nc([C@@H]6C[C@]7(CCOC7)CN6C(=O)[C@@H](NC(=O)OC)C(C)C)[nH]c54)c3)cc2)[nH]1)C(C)C [Compound 51] | 0.011 | 4 | – | –
COC(=O)N[C@H](C(=O)N1C[C@]2(CCCCO2)C[C@H]1c1nc(-c2ccc(-c3ccc4c(ccc5nc([C@@H]6CCCN6C(=O)[C@@H](NC(=O)OC)C(C)C)[nH]c54)c3)cc2)c[nH]1)C(C)C [Example 2] | 0.012 | 9 | – | –
COC(=O)N[C@H](C(=O)N1C[C@@]2(CCCCO2)C[C@H]1c1nc(-c2ccc(-c3ccc4c(ccc5nc([C@@H]6CCCN6C(=O)[C@@H](NC(=O)OC)C(C)C)[nH]c54)c3)cc2)c[nH]1)C(C)C [Example 3] | 0.146 | 6 | – | –
COC(=O)N[C@H](C(=O)N1C[C@]2(CCCO2)C[C@H]1c1ncc(-c2ccc(-c3ccc4c(ccc5nc([C@@H]6CCCN6C(=O)[C@@H](NC(=O)OC)C(C)C)[nH]c54)c3)cc2)[nH]1)C(C)C [Example 81] | 0.015 | 15 | – | –
COC(=O)N[C@H](C(=O)N1C[C@@]2(CCCO2)C[C@H]1c1ncc(-c2ccc(-c3ccc4c(ccc5nc([C@@H]6CCCN6C(=O)[C@@H](NC(=O)OC)C(C)C)[nH]c54)c3)cc2)[nH]1)C(C)C [Example 82] | 0.059 | 5 | – | –
COC(=O)N[C@H](C(=O)N1CC2(CCOCC2)C[C@H]1c1ncc(-c2ccc(-c3ccc4c(ccc5nc([C@@H]6CCCN6C(=O)[C@@H](NC(=O)OC)C(C)C)[nH]c54)c3)cc2)[nH]1)C(C)C [Example 83] | 0.029 | 26 | – | –
COC(=O)N[C@H](C(=O)N1CCC[C@H]1c1nc2ccc3cc(-c4ccc5c(ccc6nc([C@@H]7CCCN7C(=O)[C@@H](NC(=O)OC)C(C)C)[nH]c65)c4)ccc3c2[nH]1)C(C)C [Example 101] | 0.011 | 25 | – | –
COC(=O)N[C@H](C(=O)N1CCC[C@H]1c1ncc(-c2ccc(-c3ccc4c(ccc5nc([C@@H]6CCCN6C(=O)[C@@H](NC(=O)OC)C(C)C)[nH]c54)c3)cc2)[nH]1)C(C)C [Example 102] | 0.015 | 22 | – | –
COC(=O)N[C@H](C(=O)N1CCC[C@H]1c1nc2ccc(C#Cc3ccc4c(ccc5nc([C@@H]6CCCN6C(=O)[C@@H](NC(=O)OC)C(C)C)[nH]c54)c3)cc2[nH]1)C(C)C [Example 103] | 0.012 | 112 | – | –
COC(=O)N[C@H](C(=O)N1C[C@]2(CCCOC2)C[C@H]1c1ncc(-c2ccc(-c3ccc4c(ccc5nc([C@@H]6CCCN6C(=O)[C@@H](NC(=O)OC)C(C)C)[nH]c54)c3)cc2)[nH]1)C(C)C [drawing 233] | – | – | 0.01 | 8
